Measurements taken from US9169254B2, “Spiroimidazolone derivative” (Chugai Seiyaku Kabushiki Kaisha, priority 2009, dated 2015).

Target: T1, human PTH1 receptor (Homo sapiens, UniProt Q03431)
T1 sequence (Q03431 27-593): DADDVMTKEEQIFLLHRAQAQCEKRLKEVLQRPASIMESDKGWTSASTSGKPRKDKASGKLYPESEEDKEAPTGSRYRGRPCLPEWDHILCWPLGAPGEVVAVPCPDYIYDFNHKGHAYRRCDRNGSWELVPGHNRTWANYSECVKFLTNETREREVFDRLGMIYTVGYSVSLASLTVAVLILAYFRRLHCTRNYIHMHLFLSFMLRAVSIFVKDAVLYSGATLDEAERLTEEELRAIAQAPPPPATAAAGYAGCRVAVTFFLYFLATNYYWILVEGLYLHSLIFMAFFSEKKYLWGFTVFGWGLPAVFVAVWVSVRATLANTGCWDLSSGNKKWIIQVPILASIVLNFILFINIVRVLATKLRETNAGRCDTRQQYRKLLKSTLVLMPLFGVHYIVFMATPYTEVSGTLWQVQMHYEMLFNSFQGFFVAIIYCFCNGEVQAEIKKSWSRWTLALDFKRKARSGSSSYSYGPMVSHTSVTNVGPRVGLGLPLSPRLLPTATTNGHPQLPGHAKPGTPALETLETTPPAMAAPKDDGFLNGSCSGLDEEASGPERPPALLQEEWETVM
Assay: In vitro cAMP signal activity in HKRK-B7 cells (LLC-PK1 cells overexpressing the human PTH1 receptor)
Format: cell-based

[1] = HKRK-B7 cells, compound at 1×10^−3 M, cAMP produced as percentage of that produced by hPTH(1-34) at 100 nM

| SMILES | cAMP production activity (%) [1] | cAMP production activity (%) (0.1 µM) |
| --- | --- | --- |
| Cc1cc(C(=O)N2CCC(O)(CF)CC2)cc(C)c1/C=C/S(=O)(=O)N1CCC2(CC1)N=C(c1ccc(F)c(C)c1C)NC2=O [Compound 1240, 2-(4-fluoro-2,3-dimethyl-phenyl)-8-{(E)-2-[4-(4-fluoromethyl-4-hydroxy-piperidine-1-carbonyl)-2,6-dimethyl-phenyl]-ethenesulfonyl}-1,3,8-triaza-spiro[4.5]dec-1-en-4-one] | 95% | – |
| Cc1cc(C(=O)N2CCC(C)(O)CC2)cc(C)c1/C=C/[S@TB4](=O)(=O)N1CCC2(CC1)N=C(c1ccc(F)c(OC(F)(F)F)c1)NC2=O [Compound 1099, 2-(4-fluoro-3-trifluoromethoxy-phenyl)-8-{(E)-2-[4-(4-hydroxy-4-methyl-piperidine-1-carbonyl)-2,6-dimethyl-phenyl]-ethenesulfonyl}-1,3,8-triaza-spiro[4.5]dec-1-en-4-one] | 91% | – |
| Cc1cc(N(C)C(N)=O)cc(C)c1CC(C)S(=O)(=O)N1CCC2(CC1)N=C(c1cccc(OC(F)(F)F)c1)NC2=O (centres unmarked) [Compound 1090, 1-(3,5-Dimethyl-4-{2-[4-oxo-2-(3-trifluoromethoxy-phenyl)-1,3,8-triaza-spiro[4.5]dec-1-ene-8-sulfonyl]-propyl}-phenyl)-1-methyl-urea] | 118% | – |
| Cc1cc(C(=O)N2CCC(C)(O)CC2)cc(C)c1/C=C/S(=O)(=O)N1CCC2(CC1)N=C(c1ccc(Cl)c(OCCCC(F)(F)F)c1)NC2=O [Compound 1227, 2-[4-chloro-3-(4,4,4-trifluoro-butoxy)-phenyl]-8-{(E)-2-[4-(4-hydroxy-4-methyl-piperidine-1-carbonyl)-2,6-dimethyl-phenyl]-ethenesulfonyl}-1,3,8-triaza-spiro[4.5]dec-1-en-4-one] | 77% | – |
| Cc1cc(S(=O)(=O)NC2CCC(O)CC2)ccc1/C=C/S(=O)(=O)N1CCC2(CC1)N=C(c1cccc(C(F)(F)F)c1)NC2=O (centres unmarked) [Compound 592, N-(4-hydroxy-cyclohexyl)-3-methyl-4-{(E)-2-[4-oxo-2-(3-trifluoromethyl-phenyl)-1,3,8-triaza-spiro[4.5]dec-1-ene-8-sulfonyl]-vinyl}-benzenesulfonamide] | 87% | – |
| Cc1cc(N(C)C(=O)CO)ccc1/C=C/S(=O)(=O)N1CCC2(CC1)N=C(c1cccc(OC(F)(F)F)c1)NC2=O [Compound 451, 2-Hydroxy-N-methyl-N-(3-methyl-4-{(E)-2-[4-oxo-2-(3-trifluoromethoxy-phenyl)-1,3,8-triaza-spiro[4.5]dec-1-ene-8-sulfonyl]-vinyl}-phenyl)-acetamide] | 96% | – |
| CC(C)(C)OC(=O)NCc1ccc(CCS(=O)(=O)N2CCC3(CC2)N=C(C2CCCCC2)NC3=O)c(C(F)(F)F)c1 [Compound 272, {4-[2-(2-cyclohexyl-4-oxo-1,3,8-triaza-spiro[4.5]dec-1-ene-8-sulfonyl)-ethyl]-3-trifluoromethyl-benzyl}-carbamic acid tert-butyl ester] | 67% | – |
| COC(=O)NCCc1ccc(/C=C/S(=O)(=O)N2CCC3(CC2)N=C(C2CCCCC2)NC3=O)cc1 [Compound 566, (2-{4-[(E)-2-(2-cyclohexyl-4-oxo-1,3,8-triaza-spiro[4.5]dec-1-ene-8-sulfonyl)-vinyl]-phenyl}-ethyl)-carbamic acid methyl ester] | 19% | – |
| CCCCC1CCC(C2=NC3(CCN(S(=O)(=O)/C=C/c4c(C)cc(N5C(=O)CNC5=O)cc4C)CC3)C(=O)N2)CC1 (centres unmarked) [Compound 631, 3-(4-{(E)-2-[2-(4-Butyl-cyclohexyl)-4-oxo-1,3,8-triaza-spiro[4.5]dec-1-ene-8-sulfonyl]-vinyl}-3,5-dimethyl-phenyl)-imidazolidine-2,4-dione] | 65% | – |
| Cc1cc(N(C)C(N)=O)cc(C)c1/C=C/S(=O)(=O)N1CCC2(CC1)N=C(CCCCCCCCC(F)(F)F)NC2=O [Compound 1304, 1-(3,5-dimethyl-4-{(E)-2-[4-oxo-2-(9,9,9-trifluoro-nonyl)-1,3,8-triaza-spiro[4.5]dec-1-ene-8-sulfonyl]-vinyl}-phenyl)-1-methyl-urea] | 107% | – |
| Cc1cc(S(C)(=O)=O)ccc1/C=C/S(=O)(=O)N1CCC2(CC1)N=C(c1cccc(C(F)(F)F)c1)NC2=O [Compound 593, 8-[(E)-2-(4-methanesulfonyl-2-methyl-phenyl)-ethenesulfonyl]-2-(3-trifluoromethyl-phenyl)-1,3,8-triaza-spiro[4.5]dec-1-en-4-one] | 28% | – |
| Cc1cc(C(=O)N2CCC(O)CC2)ccc1CCS(=O)(=O)N1CCC2(CC1)N=C(c1cccc(OC(F)(F)F)c1)NC2=O [Compound 285, 8-{2-[4-(4-hydroxy-piperidine-1-carbonyl)-2-methyl-phenyl]-ethanesulfonyl}-2-(3-trifluoromethoxy-phenyl)-1,3,8-triaza-spiro[4.5]dec-1-en-4-one] | 65% | – |
| Cc1cc(N(C)C(=O)OC(C)(C)C)cc(C)c1CCS(=O)(=O)N1CCC2(CC1)N=C(C1CCCN1C(=O)OC(C)(C)C)NC2=O (centres unmarked) [Compound 1033, 2-(8-{2-[4-(tert-Butoxycarbonyl-methyl-amino)-2,6-dimethyl-phenyl]-ethanesulfonyl}-4-oxo-1,3,8-triaza-spiro[4.5]dec-1-en-2-yl)-pyrrolidine-1-carboxylic acid tert-butyl ester] | 22% | – |
| Cc1cc(C(=O)N2CCC(F)(F)CC2)ccc1CCS(=O)(=O)N1CCC2(CC1)N=C(c1cccc(C(F)(F)F)c1)NC2=O [Compound 365, 8-{2-[4-(4,4-difluoro-piperidine-1-carbonyl)-2-methyl-phenyl]-ethanesulfonyl}-2-(3-trifluoromethyl-phenyl)-1,3,8-triaza-spiro[4.5]dec-1-en-4-one] | 81% | – |
| Cc1cc(C(=O)N(C)C)ccc1CCS(=O)(=O)N1CCC2(CC1)N=C(c1cccc(C(F)(F)F)c1F)NC2=O [Compound 116, 4-{2-[2-(2-fluoro-3-trifluoromethyl-phenyl)-4-oxo-1,3,8-triaza-spiro[4.5]dec-1-ene-8-sulfonyl]-ethyl}-3,N,N-trimethyl-benzamide] | 94% | – |
| CC(C)(C)OC(=O)N1CCCC(C2=NC3(CCN(S(=O)(=O)CCc4cccc5ccccc45)CC3)C(=O)N2)C1 (centres unmarked) [Compound 38, 3-[8-(2-Naphthalen-1-yl-ethanesulfonyl)-4-oxo-1,3,8-triaza-spiro[4.5]dec-1-en-2-yl]-piperidine-1-carboxylic acid tert-butyl ester] | 52% | – |
| Cc1cc(N(C)C(N)=O)cc(C)c1CCS(=O)(=O)N1CCC2(CC1)N=C(C1CCC([Si](C)(C)C)CC1)NC2=O (centres unmarked) [Compound 1137, 1-(3,5-Dimethyl-4-{2-[4-oxo-2-(4-trimethylsilanyl-cyclohexyl)-1,3,8-triaza-spiro[4.5]dec-1-ene-8-sulfonyl]-ethyl}-phenyl)-1-methyl-urea] | – | 82% |
| Cc1cc(N(C)C(N)=O)cc(C)c1CCS(=O)(=O)N1CCC2(CC1)N=C(CCCCCCCCCCC1(C)COC1)NC2=O [Compound 1032, 1-[3,5-dimethyl-4-(2-{2-[10-(3-methyl-oxetan-3-yl)-decyl]-4-oxo-1,3,8-triaza-spiro[4.5]dec-1-ene-8-sulfonyl}-ethyl)-phenyl]-1-methyl-urea] | 88% | – |
| CCc1cc(N(C)C(N)=O)ccc1CCS(=O)(=O)N1CCC2(CC1)N=C(C1CCC(C)CC1)NC2=O (centres unmarked) [Compound 829, 1-(3-ethyl-4-{2-[2-(4-methyl-cyclohexyl)-4-oxo-1,3,8-triaza-spiro[4.5]dec-1-ene-8-sulfonyl]-ethyl}-phenyl)-1-methyl-urea] | 79% | – |
| Cc1cc(N(CCO)C(=O)CO)ccc1/C=C/S(=O)(=O)N1CCC2(CC1)N=C(c1cccc(OC(F)(F)F)c1)NC2=O [Compound 722, 2-Hydroxy-N-(2-hydroxy-ethyl)-N-(3-methyl-4-{(E)-2-[4-oxo-2-(3-trifluoromethoxy-phenyl)-1,3,8-triaza-spiro[4.5]dec-1-ene-8-sulfonyl]-vinyl}-phenyl)-acetamide] | 60% | – |
| O=C(CO)NCc1ccc(CCS(=O)(=O)N2CCC3(CC2)N=C(C2CCCCC2)NC3=O)cc1 [Compound 659, N-{4-[2-(2-cyclohexyl-4-oxo-1,3,8-triaza-spiro[4.5]dec-1-ene-8-sulfonyl)-ethyl]-benzyl}-2-hydroxy-acetamide] | 46% | – |
| Cc1cc(N2C(=O)CNC2=O)ccc1CCS(=O)(=O)N1CCC2(CC1)N=C(C1CCC(C)(C)CC1)NC2=O [Compound 951, 3-(4-{2-[2-(4,4-dimethyl-cyclohexyl)-4-oxo-1,3,8-triaza-spiro[4.5]dec-1-ene-8-sulfonyl]-ethyl}-3-methyl-phenyl)-imidazolidine-2,4-dione] | 93% | – |
| Cc1cc2ccc1CCS(=O)(=O)N1CCC3(CC1)N=C(NC3=O)c1cc(cc(C(F)(F)F)c1)OCCCCCCCCCN(C)C2=O [Compound 1415] | 49% | – |
